Assay results reported in US20030007964A1, “Method for treating rheumatoid arthritis with composition containing histone” (SAMYANG GENEX CORPORATION, priority 1998, published 2003).

Assays:
[1] = test system: collagen induced arthritis; assay: Preventive effect against collagen induced arthritis in mice (Example 3); type: in vivo, DBA/1J female mice; settings: preventive regimen
Procedure: (§1) Five-week old DBA/1J female mice were imported from Charles River Japan and allowed to adapt in an animal room for two weeks before using them in the experiments at the age of 7 weeks (20-25 g).
(§2) Isolated and quantified type II collagen of chicken (Sigma Chemical Co., St. Louis, Mo., U.S.A.) was solubilized in 0.1 N acetic acid at a concentration of 2 mg/ml. The solution was mixed with an equal amount of a complete Freund's adjuvant at 4° C. to form a suspension. One hundred microliters of this mixture was injected […] around the origin of the tail vein and further inoculated at 3 and 6 weeks after the first injection (D. E. Trentham et. al., Autoimmunity to Type II collagen: An Experimental Model of Arthritis, J. Exp. Med. 146; 857-868 (1977)). Arthritis was induced from the 4th week after the first injection.
(§3) Clinical incidence of arthritis % (C.I.A) and arthritis index were examined. C.I.A. was expressed as the percentage of mice that have arthritic symptoms among the total mice. The degree of inflammation expressed as the arthritis index was categorized from 0 to 3 by 2 researchers every week as below. Pictures of the feet of some mice were taken 6 weeks after the collagen administration.
(§4) 1: One or two toes were swollen with suffusion or had minimal swelling
(§5) 2: Definite suffusion or local swelling in many toes
(§6) 3: Observation of severe edema and swelling up to the knee and restricted use of the feet.
(§7) The arthritis index was calculated for 4 feet (2 hind feet and 2 fore feet) giving the maximum value of 12. An index of 6-8 was considered severe since collagen induced arthritis invades in general mainly the hind feet (Korea J. Immunol. 18, 437, 1996; J. Immunol. 151, 6546,1993).
As a test group to examine the preventive effect, 1 mg/kg body weight of histone H1 was administered into 10 mice via intraperitoneal injection 2 times every week from the third week (before arthritis induction) up to 10th week after the first injection. Histone H1 was diluted at a concentration of 5 mg/ml in PBS. As a comparison group, 1 mg/kg body weight of dexamethasone, a currently available rheumatoid arthritis drug, was administered into 10 mice via intraperitoneal injection 2 times every week from the third week (before arthritis induction) up to 10th week after the first injection. As a control group, 300 μl of PBS was administered into 20 mice 2 times every week from the third week up to 10th week after the first collagen injection.

[2] = test system: collagen induced arthritis; assay: Treatment effect on collagen induced arthritis in mice, histone H1 (Example 4); type: in vivo, DBA/1J female mice; parameters: key to arthritis index: sum of 0–3 per-foot scores over 4 feet, max 12
Procedure: as §1, §2, §3, §4, §5, §6, §7
As a test group to examine the treatment effect, 1 mg/kg body weight of histone H1 was administered into 10 mice via intraperitoneal injection 2 times every week from the 6th week (after arthritis induction) up to the 10th week. Histone H1 was diluted at a concentration of 5 mg/ml in PBS. As a comparison group, 1 mg/kg body weight of dexamethasone, a currently available rheumatoid arthritis drug, was administered into 10 mice via an intraperitoneal injection 2 times every week from the 6th week (after arthritis induction) up to the 10th week. Identical control group was used as in EXAMPLE 1.

[3] = test system: anti-collagen antibody (Type II collagen); assay: Serum anti-collagen antibody level by ELISA; type: in vivo, mice; settings: serum at 10th week
Procedure: At the 10th week the serum was isolated from the blood obtained through a heart puncture. The serum was kept at −80° C. and thawed immediately before the experiment to measure the anti-collagen antibody level by performing an ELISA (D. E. Tretham & R. A. Dynesius-Trentham, J. Immunol. 130; 2689-2692 (1983)). Type II collagen (25 μg/ml) in 0.1 M PBS was placed in each well of a 96-well polystyrene microplate (Nunc, Denmark) and was incubated at 4° C. for 8 hours. After the incubation, the wells were washed several times with a PBS-0.05% Tween 20 solution. To prevent non-specific immune reactions, PBS-0.5% ovalbumin was added in each well and incubated for an hour at room temperature and subsequently washed again with the PBS-0.05% Tween 20 solution. The serum, diluted 500 times with a buffer solution was added in each well and reacted for 2 hours at room temperature and further washed with the PBS-0.05% Tween 20 solution. After reacting each well with alkaline phosphatase conjugated goat anti-mouse IgA and IgM for 2 hours and adding 1 mg/ml of p-nitrophenyl phosphate, the absorbance at 450 nm was measured. The anti-collagen antibody level was measured twice for each sample and averaged.
The anti-collagen antibody level was measured to estimate the immune reaction as in EXAMPLE 3. […]

[4] = test system: collagen induced arthritis; assay: Pathological observation of leg joints by H-E staining; type: in vivo, mice; settings: treatment regimen; 10 weeks after antigen inoculation
Source text: Mice were sacrificed by blood evacuation from the heart. The legs were cut immediately after the sacrifice and fixed in formalin. After the decalcification, legs were stained by hematoxylin-Eosin.

[5] = test system: collagen induced arthritis; assay: Treatment effect on collagen induced arthritis in mice, histone H2A and its active fragment (Example 7); type: in vivo
Procedure: as §1, §2, §3, §4, §5, §6, §7
As a test group to examine the treatment effect, 5 mice for histone H2A and 7mice for histone H2A active fragment were used. 1 mg/kg body weight of histone H2A or histone H2A active fragment was administered into the mice via intraperitoneal injection 2 times every week from the 6th week (after arthritis induction) up to the 10th week. Histone H2A or histone H2A active fragment was diluted at a concentration of 5 mg/ml in PBS. As a comparison group, 1 mg/kg body weight of dexamethasone, a currently available rheumatoid arthritis drug, was administered into 7 mice via an intraperitoneal injection 2 times every week from the 6th week (after arthritis induction) up to the 10th week. As a control group, […] of PBS was administered into 7 mice every week from the third week up to 10th week after the first collagen injection.

[6] = test group at 5th week, before administration (baseline)
[7] = treatment regimen from 6th week, 7th week
[8] = treatment regimen from 6th week, 8th week
[9] = treatment regimen from 6th week, 10th week

Molecule: Histone H1
- week at which arthritis was first observed after the inoculation ([1]; 1 mg/kg i.p.): 7 week
- arthritis induction ([1]; 1 mg/kg i.p. 2 times every week from third week, up to the 6th week): complete prevention of arthritis induction
- C.I.A. (clinical incidence of arthritis) ([1]; 1 mg/kg i.p., 7th week): 60%
- C.I.A. (clinical incidence of arthritis) ([1]; 1 mg/kg i.p., 8th week): 60%
- C.I.A. (clinical incidence of arthritis) ([1]; 1 mg/kg i.p., 10th week): 80%
- arthritis index relative to the control group ([1]; 7th week): 60%
- arthritis index ([1]; mice that had arthritis, 10th week): 2.25±1.26
- edema of fore feet (pictures) ([2]; 6th week after administration of the collagen): improvement of edema was observed
- arthritis index [2, 6]: 3.33±0.58
- arthritis index ([2]; treatment regimen from 6th week, 6th week): 2.67±0.58
- C.I.A. (clinical incidence of arthritis) [2, 7]: 12.5%
- arthritis index [2, 7]: 1.00
- C.I.A. (clinical incidence of arthritis) [2, 8]: 14.3%
- arthritis index [2, 8]: 2
- C.I.A. (clinical incidence of arthritis) [2, 9]: 14.3%
- arthritis index [2, 9]: 1.00
- fraction of the induced arthritis completely cured ([2]; treatment regimen from 6th week, after the 7th week): ⅔
- C.I.A. (clinical incidence of arthritis) ([2]; treatment regimen, 1 mg/kg i.p. 2 times every week from 6th week, 6th week): 37.5%
- anti-collagen antibody level (absorbance at 450 nm) ([3]; preventive regimen, diluted 500 times): 0.588±.214
- anti-collagen antibody level (absorbance at 450 nm) ([3]; treatment regimen (from 6th week)): 0.540±170
- formation of pannus, erosion of cartilage or manifestation of inflammatory cells (H-E staining) [4]: not observed

Molecule: C[C@@H]1C[C@H]2[C@@H]3CCC4=CC(=O)C=C[C@]4(C)[C@@]3(F)[C@@H](O)C[C@]2(C)[C@@]1(O)C(=O)CO [dexamethasone, reference compound]
- arthritis index ([1]; 5 weeks): 2.00
- arthritis index ([1]; 6 weeks): 1.50
- C.I.A. (clinical incidence of arthritis) [2, 7]: 22.2%
- arthritis index [2, 7]: 2.67
- C.I.A. (clinical incidence of arthritis) [2, 8]: 33.3%
- arthritis index [2, 8]: 1.67
- C.I.A. (clinical incidence of arthritis) ([2]; treatment regimen from 6th week, 9th week): 22.2%
- arthritis index [2, 9]: 3.00
- arthritis index ([5]; 1 mg/kg i.p. from 6th week, 8th week): 4.57
- arthritis index ([5]; 1 mg/kg i.p. from 6th week, 9th week): 1.86
- arthritis index ([5]; 1 mg/kg i.p. from 6th week, 10th week): 1.86

Molecule: Histone H2A
- arthritis index ([5]; 1 mg/kg i.p. 2 times every week from 6th week, 7th week): 4.80±0.45
- arthritis index ([5]; 1 mg/kg i.p. from 6th week, after the 9th week): 2.80
- arthritis index [5, 6]: 3.60±0.55
